Test [1] deals with Serine/threonine-protein kinase 38-like (Homo sapiens, UniProt Q9Y2H1).
The target in test [2] is T1, Phosphorylase b kinase gamma catalytic chain, liver/testis isoform (Homo sapiens, UniProt P15735).
T1 sequence (P15735 whole entry): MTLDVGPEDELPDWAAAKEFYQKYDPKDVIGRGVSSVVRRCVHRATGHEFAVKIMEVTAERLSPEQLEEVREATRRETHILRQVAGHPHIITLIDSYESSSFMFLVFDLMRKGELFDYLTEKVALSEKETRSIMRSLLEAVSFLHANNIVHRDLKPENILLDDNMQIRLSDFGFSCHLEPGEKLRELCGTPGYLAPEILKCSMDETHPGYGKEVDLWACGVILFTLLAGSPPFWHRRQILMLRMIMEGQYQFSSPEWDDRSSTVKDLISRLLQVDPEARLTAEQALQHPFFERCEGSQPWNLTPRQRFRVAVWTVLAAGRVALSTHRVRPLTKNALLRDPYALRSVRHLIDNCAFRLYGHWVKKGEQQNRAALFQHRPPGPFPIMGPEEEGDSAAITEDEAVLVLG

In test [3] the target is Dual specificity protein kinase CLK2 (Homo sapiens, UniProt P49760).
Sequence of Dual specificity protein kinase CLK2 (P49760 whole entry): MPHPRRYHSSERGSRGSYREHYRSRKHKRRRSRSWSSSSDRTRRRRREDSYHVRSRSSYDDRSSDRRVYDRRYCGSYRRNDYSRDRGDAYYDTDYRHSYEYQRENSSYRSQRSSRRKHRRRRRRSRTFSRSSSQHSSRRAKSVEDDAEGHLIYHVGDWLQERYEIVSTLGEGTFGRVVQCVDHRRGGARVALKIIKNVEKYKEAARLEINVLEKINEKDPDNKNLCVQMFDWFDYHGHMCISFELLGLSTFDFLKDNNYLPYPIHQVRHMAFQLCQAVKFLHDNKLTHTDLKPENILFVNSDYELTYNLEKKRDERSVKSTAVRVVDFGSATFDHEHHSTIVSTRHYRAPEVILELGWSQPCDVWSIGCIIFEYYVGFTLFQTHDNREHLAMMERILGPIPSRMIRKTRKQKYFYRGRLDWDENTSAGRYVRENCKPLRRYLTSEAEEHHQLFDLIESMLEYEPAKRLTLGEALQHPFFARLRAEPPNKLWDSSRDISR
The target of test [4] is Tyrosine-protein kinase Lyn (Homo sapiens, UniProt P07948).
Sequence of Tyrosine-protein kinase Lyn (P07948 whole entry, canonical isoform): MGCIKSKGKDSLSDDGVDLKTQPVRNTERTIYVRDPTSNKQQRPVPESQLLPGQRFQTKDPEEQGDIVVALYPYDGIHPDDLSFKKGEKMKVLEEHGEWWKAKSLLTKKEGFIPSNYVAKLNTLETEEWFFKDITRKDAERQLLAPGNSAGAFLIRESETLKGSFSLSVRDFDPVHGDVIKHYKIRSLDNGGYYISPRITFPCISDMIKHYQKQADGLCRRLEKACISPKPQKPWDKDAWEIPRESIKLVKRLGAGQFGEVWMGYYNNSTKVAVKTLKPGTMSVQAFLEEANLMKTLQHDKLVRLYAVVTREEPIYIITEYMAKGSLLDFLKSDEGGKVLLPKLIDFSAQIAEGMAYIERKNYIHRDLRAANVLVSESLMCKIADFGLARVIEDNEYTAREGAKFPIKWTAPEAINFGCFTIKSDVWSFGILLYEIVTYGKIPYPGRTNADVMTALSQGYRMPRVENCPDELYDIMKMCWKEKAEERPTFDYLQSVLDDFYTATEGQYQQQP
Test [5] has as its target Phosphorylase b kinase gamma catalytic chain, skeletal muscle/heart isoform (Homo sapiens, UniProt Q16816).
Test [6] deals with Serine/threonine-protein kinase 16 (Homo sapiens, UniProt O75716).
Sequence of Serine/threonine-protein kinase 16 (O75716 whole entry): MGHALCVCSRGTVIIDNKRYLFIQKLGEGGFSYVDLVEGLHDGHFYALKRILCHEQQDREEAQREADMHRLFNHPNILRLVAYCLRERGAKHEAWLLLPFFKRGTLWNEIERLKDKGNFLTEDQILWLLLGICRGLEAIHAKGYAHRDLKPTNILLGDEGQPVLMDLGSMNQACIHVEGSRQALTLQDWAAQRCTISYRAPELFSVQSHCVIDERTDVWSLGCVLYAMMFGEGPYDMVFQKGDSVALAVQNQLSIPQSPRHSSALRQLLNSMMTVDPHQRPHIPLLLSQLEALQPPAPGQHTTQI
Test [7] concerns the target T2, Serine/threonine-protein kinase ULK3 (Mus musculus, UniProt Q3U3Q1).
T2 sequence (Q3U3Q1 whole entry): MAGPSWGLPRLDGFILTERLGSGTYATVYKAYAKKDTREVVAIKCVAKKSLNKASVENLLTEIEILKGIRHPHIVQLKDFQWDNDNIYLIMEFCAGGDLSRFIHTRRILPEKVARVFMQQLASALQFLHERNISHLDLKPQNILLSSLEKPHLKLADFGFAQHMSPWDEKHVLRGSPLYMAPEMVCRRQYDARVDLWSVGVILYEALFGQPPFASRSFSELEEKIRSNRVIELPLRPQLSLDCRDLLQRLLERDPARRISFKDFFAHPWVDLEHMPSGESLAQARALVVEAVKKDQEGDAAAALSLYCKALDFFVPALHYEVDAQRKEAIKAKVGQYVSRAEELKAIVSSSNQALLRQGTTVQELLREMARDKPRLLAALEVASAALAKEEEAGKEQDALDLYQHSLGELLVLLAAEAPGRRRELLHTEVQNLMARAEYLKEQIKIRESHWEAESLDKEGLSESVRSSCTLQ

Test [8] has as its target Serine/threonine-protein kinase pim-2 (Homo sapiens, UniProt Q9P1W9).
Test [9] deals with T3, Dual specificity protein kinase TTK (Homo sapiens, UniProt P33981).
T3 sequence (P33981 whole entry): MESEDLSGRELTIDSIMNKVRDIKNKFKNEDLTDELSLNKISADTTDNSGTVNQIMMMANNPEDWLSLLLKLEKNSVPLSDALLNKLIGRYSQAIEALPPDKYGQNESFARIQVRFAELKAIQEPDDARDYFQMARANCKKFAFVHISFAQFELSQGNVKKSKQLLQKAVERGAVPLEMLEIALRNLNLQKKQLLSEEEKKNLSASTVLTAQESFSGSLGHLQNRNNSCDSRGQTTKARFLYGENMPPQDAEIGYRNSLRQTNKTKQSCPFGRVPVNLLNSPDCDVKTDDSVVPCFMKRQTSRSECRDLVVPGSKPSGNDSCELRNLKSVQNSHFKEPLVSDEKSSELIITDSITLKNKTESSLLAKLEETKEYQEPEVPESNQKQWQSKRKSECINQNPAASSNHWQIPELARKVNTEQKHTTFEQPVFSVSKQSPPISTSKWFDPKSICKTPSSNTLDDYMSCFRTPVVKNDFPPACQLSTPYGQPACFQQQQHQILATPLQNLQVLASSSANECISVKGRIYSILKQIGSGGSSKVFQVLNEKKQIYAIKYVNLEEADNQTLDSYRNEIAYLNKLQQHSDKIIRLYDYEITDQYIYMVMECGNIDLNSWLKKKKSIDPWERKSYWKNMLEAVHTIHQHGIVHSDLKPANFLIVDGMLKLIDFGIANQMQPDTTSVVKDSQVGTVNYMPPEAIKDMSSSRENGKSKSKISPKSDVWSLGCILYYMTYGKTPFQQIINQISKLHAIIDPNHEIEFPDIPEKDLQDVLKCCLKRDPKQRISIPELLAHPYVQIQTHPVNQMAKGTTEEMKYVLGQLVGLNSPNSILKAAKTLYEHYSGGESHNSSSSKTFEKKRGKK

Test [10] addresses T4, Serine/threonine-protein kinase 17A (Homo sapiens, UniProt Q9UEE5).
T4 sequence (Q9UEE5 whole entry): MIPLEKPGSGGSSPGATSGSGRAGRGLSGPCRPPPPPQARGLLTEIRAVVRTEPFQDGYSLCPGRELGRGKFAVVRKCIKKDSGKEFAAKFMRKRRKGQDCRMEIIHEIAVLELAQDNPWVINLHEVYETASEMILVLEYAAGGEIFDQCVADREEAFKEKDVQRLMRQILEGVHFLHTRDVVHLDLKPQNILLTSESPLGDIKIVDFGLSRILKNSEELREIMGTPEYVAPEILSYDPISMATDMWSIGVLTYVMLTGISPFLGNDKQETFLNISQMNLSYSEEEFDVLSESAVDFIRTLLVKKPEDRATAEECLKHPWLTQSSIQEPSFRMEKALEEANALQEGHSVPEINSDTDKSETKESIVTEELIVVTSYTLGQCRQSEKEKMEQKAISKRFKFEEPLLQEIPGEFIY

In another test the target is T5, Aurora kinase A (Homo sapiens, UniProt O14965).
T5 sequence (O14965 whole entry): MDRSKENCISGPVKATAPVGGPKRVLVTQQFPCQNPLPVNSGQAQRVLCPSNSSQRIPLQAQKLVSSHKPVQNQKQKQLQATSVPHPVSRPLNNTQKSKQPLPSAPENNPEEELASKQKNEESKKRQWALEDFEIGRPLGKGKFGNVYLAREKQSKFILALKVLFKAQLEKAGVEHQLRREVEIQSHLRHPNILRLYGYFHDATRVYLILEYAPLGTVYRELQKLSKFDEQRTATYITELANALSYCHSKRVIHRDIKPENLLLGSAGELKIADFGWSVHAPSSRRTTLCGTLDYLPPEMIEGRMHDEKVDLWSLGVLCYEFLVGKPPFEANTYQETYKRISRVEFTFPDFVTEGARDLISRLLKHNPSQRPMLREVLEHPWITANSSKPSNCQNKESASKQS

Each structure is given as a SMILES string.

Sequence of Serine/threonine-protein kinase 38-like (Q9Y2H1 whole entry, canonical isoform): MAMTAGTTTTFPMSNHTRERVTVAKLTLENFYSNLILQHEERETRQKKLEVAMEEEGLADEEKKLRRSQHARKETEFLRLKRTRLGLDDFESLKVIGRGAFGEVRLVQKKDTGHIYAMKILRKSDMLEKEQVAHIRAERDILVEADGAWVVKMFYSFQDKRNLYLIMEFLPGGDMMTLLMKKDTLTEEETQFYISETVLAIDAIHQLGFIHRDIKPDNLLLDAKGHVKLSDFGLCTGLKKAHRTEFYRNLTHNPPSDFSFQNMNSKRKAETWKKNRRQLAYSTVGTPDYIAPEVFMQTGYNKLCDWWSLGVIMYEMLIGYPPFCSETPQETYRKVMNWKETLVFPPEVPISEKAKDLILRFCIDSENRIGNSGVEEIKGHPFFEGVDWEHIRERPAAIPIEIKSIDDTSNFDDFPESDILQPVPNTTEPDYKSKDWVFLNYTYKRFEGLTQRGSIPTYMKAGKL
Sequence of Phosphorylase b kinase gamma catalytic chain, skeletal muscle/heart isoform (Q16816 whole entry, canonical isoform): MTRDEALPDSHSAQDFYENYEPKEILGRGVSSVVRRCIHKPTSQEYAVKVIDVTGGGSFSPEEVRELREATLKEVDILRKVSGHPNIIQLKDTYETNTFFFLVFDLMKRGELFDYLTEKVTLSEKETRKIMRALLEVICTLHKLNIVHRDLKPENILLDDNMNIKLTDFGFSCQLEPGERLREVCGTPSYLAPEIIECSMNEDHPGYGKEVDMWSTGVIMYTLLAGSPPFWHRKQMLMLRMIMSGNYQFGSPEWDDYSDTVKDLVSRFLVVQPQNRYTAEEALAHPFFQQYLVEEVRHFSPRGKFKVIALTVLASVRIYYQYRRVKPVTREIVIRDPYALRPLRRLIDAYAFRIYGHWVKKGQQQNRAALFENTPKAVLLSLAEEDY
Sequence of Serine/threonine-protein kinase pim-2 (Q9P1W9 whole entry): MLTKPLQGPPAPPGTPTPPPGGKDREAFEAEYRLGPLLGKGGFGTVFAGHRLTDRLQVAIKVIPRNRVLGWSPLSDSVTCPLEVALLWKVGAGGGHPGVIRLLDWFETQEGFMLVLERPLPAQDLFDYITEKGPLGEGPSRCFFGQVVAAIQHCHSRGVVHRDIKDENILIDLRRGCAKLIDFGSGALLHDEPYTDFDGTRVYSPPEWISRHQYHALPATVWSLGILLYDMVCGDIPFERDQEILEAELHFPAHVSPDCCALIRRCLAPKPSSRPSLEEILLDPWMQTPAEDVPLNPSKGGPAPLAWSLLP

On to `CCOc1cc2ncc(C#N)c(Nc3ccc(F)c(Cl)c3)c2cc1NC(=O)/C=C/CN(C)C` [PELITINIB], for which the Kd in test [1] was 3100 nM; in [2] it was 2500 nM; in [3], 700 nM; in test [4], 960 nM; in test [5], 1500 nM.

As for `Oc1c2ccccc2c2c3c(cccc13)N=N2` [SP-600125], the Kd in test [6] was 510 nM; in test [1] it was 2300 nM; in test [7], 680 nM; in [8] it was 460 nM; in test [2], 480 nM; in test [3], 300 nM. For the same compound, the figures for the dissociation constant (Kd) (in [9]; in [10]; on Aurora kinase A) were 98 nM, 2100 nM and 980 nM, respectively.

Source of the values: ChEMBL document CHEMBL1144455, “A small molecule-kinase interaction map for clinical kinase inhibitors” (Nat Biotechnol, 2005).
